# Data: PubChem BioAssay (NCI)
#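 48-hour exposure; five concentrations; linearly interpolated endpoints. GI50 is the concentration that inhibits growth by half. TGI: concentration producing complete growth inhibition.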
# What was measured:
# Experiment in all cases: NCI tumour cell line growth inhibition, 48 h
# NCI/ADR-RES ovarian = system: NCI/ADR-RES ovarian
# NCI-H460 lung = system: NCI-H460 lung
# HCT-116 colon = system: HCT-116 colon
# PC-3 prostate = system: PC-3 prostate
# U251 CNS = system: U251 CNS
# SK-MEL-5 melanoma = system: SK-MEL-5 melanoma
# UACC-62 melanoma = system: UACC-62 melanoma
# UACC-257 melanoma = system: UACC-257 melanoma
# UO-31 renal = system: UO-31 renal
# KM12 colon = system: KM12 colon
# DU-145 prostate = system: DU-145 prostate
# MDA-MB-435 = system: MDA-MB-435
# K-562 leukemia = system: K-562 leukemia
# SR leukemia = system: SR leukemia
# CCRF-CEM leukemia = system: CCRF-CEM leukemia
# MCF7 breast = system: MCF7 breast
# MOLT-4 leukemia = system: MOLT-4 leukemia
# MALME-3M melanoma = system: MALME-3M melanoma
# CAKI-1 renal = system: CAKI-1 renal
# HOP-62 NSCLC = system: HOP-62 NSCLC
# OVCAR-4 ovarian = system: OVCAR-4 ovarian
# RPMI-8226 leukemia = system: RPMI-8226 leukemia
# SF-539 CNS = system: SF-539 CNS
# SN12C renal = system: SN12C renal
# BT-549 breast = system: BT-549 breast
# COLO 205 colon = system: COLO 205 colon
# HS 578T breast = system: HS 578T breast
# SW-620 colon = system: SW-620 colon
# SF-268 CNS = system: SF-268 CNS
# OVCAR-5 ovarian = system: OVCAR-5 ovarian
# LOX IMVI melanoma = system: LOX IMVI melanoma
# HL-60(TB) leukemia = system: HL-60(TB) leukemia
# SNB-19 CNS = system: SNB-19 CNS
# NCI-H522 lung = system: NCI-H522 lung
# T-47D breast = system: T-47D breast
# ACHN renal = system: ACHN renal
# SK-MEL-28 melanoma = system: SK-MEL-28 melanoma
# HT29 colon = system: HT29 colon
# EKVX NSCLC = system: EKVX NSCLC
# A498 renal = system: A498 renal
# HCC-2998 colon = system: HCC-2998 colon
# SF-295 CNS = system: SF-295 CNS
# M14 melanoma = system: M14 melanoma
# MDA-MB-231 breast = system: MDA-MB-231 breast
# OVCAR-8 ovarian = system: OVCAR-8 ovarian
# A549 NSCLC = system: A549 NSCLC
# SNB-75 CNS = system: SNB-75 CNS
# HOP-92 NSCLC = system: HOP-92 NSCLC
# RXF 393 renal = system: RXF 393 renal
# 786-0 renal = system: 786-0 renal
# OVCAR-3 ovarian = system: OVCAR-3 ovarian
# IGROV1 ovarian = system: IGROV1 ovarian
# NCI-H23 lung = system: NCI-H23 lung
# TK-10 renal = system: TK-10 renal
structure (smiles),measurement,setting,value
Clc1cccc(/C=N/Nc2nc(N/N=C/c3cccc(Cl)c3)nc(N3CCOCC3)n2)c1,GI50,NCI/ADR-RES ovarian,3.39 µM
same,TGI,NCI/ADR-RES ovarian,> 100 µM
same,GI50,NCI-H460 lung,3.47 µM
same,TGI,NCI-H460 lung,> 100 µM
same,GI50,HCT-116 colon,1.27 µM
same,TGI,HCT-116 colon,> 100 µM
same,GI50,PC-3 prostate,2.91 µM
same,TGI,PC-3 prostate,> 100 µM
same,GI50,U251 CNS,3.49 µM
same,TGI,U251 CNS,> 100 µM
same,GI50,SK-MEL-5 melanoma,1.72 µM
same,TGI,SK-MEL-5 melanoma,3.44 µM
same,GI50,UACC-62 melanoma,4.54 µM
same,TGI,UACC-62 melanoma,> 100 µM
same,GI50,UACC-257 melanoma,2.47 µM
same,TGI,UACC-257 melanoma,6.52 µM
same,GI50,UO-31 renal,1.61 µM
same,TGI,UO-31 renal,> 100 µM
same,GI50,KM12 colon,3.61 µM
same,TGI,KM12 colon,> 100 µM
same,GI50,DU-145 prostate,2.62 µM
same,TGI,DU-145 prostate,> 100 µM
same,GI50,MDA-MB-435,4.24 µM
same,TGI,MDA-MB-435,> 100 µM
same,GI50,K-562 leukemia,0.699 µM
same,TGI,K-562 leukemia,7.65 µM
same,GI50,SR leukemia,0.329 µM
same,TGI,SR leukemia,2.58 µM
same,GI50,CCRF-CEM leukemia,1.34 µM
same,TGI,CCRF-CEM leukemia,6.6 µM
same,GI50,MCF7 breast,2.47 µM
same,TGI,MCF7 breast,> 100 µM
same,GI50,MOLT-4 leukemia,1.49 µM
same,TGI,MOLT-4 leukemia,4.4 µM
same,GI50,MALME-3M melanoma,2.86 µM
same,TGI,MALME-3M melanoma,5.57 µM
same,GI50,CAKI-1 renal,2.77 µM
same,TGI,CAKI-1 renal,> 100 µM
same,GI50,HOP-62 NSCLC,4.67 µM
same,TGI,HOP-62 NSCLC,> 100 µM
same,GI50,OVCAR-4 ovarian,5.82 µM
same,TGI,OVCAR-4 ovarian,> 100 µM
same,GI50,RPMI-8226 leukemia,1.9 µM
same,TGI,RPMI-8226 leukemia,6.79 µM
same,GI50,SF-539 CNS,5.39 µM
same,TGI,SF-539 CNS,> 100 µM
same,GI50,SN12C renal,4.99 µM
same,TGI,SN12C renal,> 100 µM
same,GI50,BT-549 breast,3.22 µM
same,TGI,BT-549 breast,> 100 µM
same,GI50,COLO 205 colon,1.23 µM
same,TGI,COLO 205 colon,> 100 µM
same,GI50,HS 578T breast,3.76 µM
same,TGI,HS 578T breast,> 100 µM
same,GI50,SW-620 colon,1.78 µM
same,TGI,SW-620 colon,> 100 µM
same,GI50,SF-268 CNS,5.1 µM
same,TGI,SF-268 CNS,> 100 µM
same,GI50,OVCAR-5 ovarian,> 100 µM
same,TGI,OVCAR-5 ovarian,> 100 µM
same,GI50,LOX IMVI melanoma,2.99 µM
same,TGI,LOX IMVI melanoma,> 100 µM
same,GI50,HL-60(TB) leukemia,0.505 µM
same,TGI,HL-60(TB) leukemia,3.08 µM
same,GI50,SNB-19 CNS,37 µM
same,TGI,SNB-19 CNS,> 100 µM
same,GI50,NCI-H522 lung,3.21 µM
same,TGI,NCI-H522 lung,> 100 µM
same,GI50,T-47D breast,3.54 µM
same,TGI,T-47D breast,> 100 µM
same,GI50,ACHN renal,2.11 µM
same,TGI,ACHN renal,> 100 µM
same,GI50,SK-MEL-28 melanoma,2.86 µM
same,TGI,SK-MEL-28 melanoma,7.74 µM
same,GI50,HT29 colon,1.34 µM
same,TGI,HT29 colon,> 100 µM
same,GI50,EKVX NSCLC,4.23 µM
same,TGI,EKVX NSCLC,> 100 µM
same,GI50,A498 renal,1.67 µM
same,TGI,A498 renal,5.65 µM
same,GI50,HCC-2998 colon,2.73 µM
same,TGI,HCC-2998 colon,> 100 µM
same,GI50,SF-295 CNS,4.13 µM
same,TGI,SF-295 CNS,> 100 µM
same,GI50,M14 melanoma,3.08 µM
same,TGI,M14 melanoma,> 100 µM
same,GI50,MDA-MB-231 breast,9.16 µM
same,TGI,MDA-MB-231 breast,> 100 µM
same,GI50,OVCAR-8 ovarian,4.58 µM
same,TGI,OVCAR-8 ovarian,> 100 µM
same,GI50,A549 NSCLC,3.57 µM
same,TGI,A549 NSCLC,> 100 µM
same,GI50,SNB-75 CNS,3.33 µM
same,TGI,SNB-75 CNS,> 100 µM
same,GI50,HOP-92 NSCLC,2.17 µM
same,TGI,HOP-92 NSCLC,> 100 µM
same,GI50,RXF 393 renal,1 µM
same,TGI,RXF 393 renal,3.51 µM
same,GI50,786-0 renal,1.07 µM
same,TGI,786-0 renal,4.12 µM
same,GI50,OVCAR-3 ovarian,2.87 µM
same,TGI,OVCAR-3 ovarian,59.9 µM
same,GI50,IGROV1 ovarian,4.61 µM
same,TGI,IGROV1 ovarian,> 100 µM
same,GI50,NCI-H23 lung,4.05 µM
same,TGI,NCI-H23 lung,> 100 µM
same,GI50,TK-10 renal,5.89 µM
same,TGI,TK-10 renal,> 100 µM
